Experimental findings from publication PMC7484352 (Archives of biochemistry and biophysics, 2020) are described below.

This assay addresses T1, bDAD (DAD V1M) (Burkholderia sp. AZ11, UniProt F7J5X4, V1M).
T1 sequence (F7J5X4 1-177): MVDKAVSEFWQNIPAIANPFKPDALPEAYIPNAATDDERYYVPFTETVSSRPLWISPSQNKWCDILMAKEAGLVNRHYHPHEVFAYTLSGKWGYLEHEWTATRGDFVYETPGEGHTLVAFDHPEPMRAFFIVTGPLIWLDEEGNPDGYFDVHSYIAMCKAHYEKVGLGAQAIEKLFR
Briefly: UV absorbance at […] nm, DHA consumption. In kind it is biochemical.

As for `O=C(O)c1ccc(O)cc1` [4HB, 4-hydroxybenzoic acid], the Ki (commonly a measure of affinity in units of concentration, obtained from inhibition or displacement) is 1100 ± 400 µM.
